The target in series [1] is T1, Alpha-1A adrenergic receptor (Rattus norvegicus, UniProt P43140).
T1 sequence (P43140 whole entry): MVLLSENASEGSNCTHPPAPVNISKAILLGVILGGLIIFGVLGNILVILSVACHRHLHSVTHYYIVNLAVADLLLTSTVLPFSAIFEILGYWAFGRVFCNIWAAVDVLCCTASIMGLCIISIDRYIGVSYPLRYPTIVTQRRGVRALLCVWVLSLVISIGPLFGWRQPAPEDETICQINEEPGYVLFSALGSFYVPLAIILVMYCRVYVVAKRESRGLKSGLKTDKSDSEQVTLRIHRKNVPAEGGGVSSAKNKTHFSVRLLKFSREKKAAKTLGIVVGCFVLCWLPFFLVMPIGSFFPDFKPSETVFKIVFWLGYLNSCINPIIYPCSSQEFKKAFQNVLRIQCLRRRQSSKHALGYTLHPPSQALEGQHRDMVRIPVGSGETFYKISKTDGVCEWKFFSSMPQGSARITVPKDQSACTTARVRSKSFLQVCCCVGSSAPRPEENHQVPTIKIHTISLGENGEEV
Put plainly: DRUGMATRIX: Alpha-1A adrenergic receptor radioligand binding (ligand: prazosin). The format is cell membranes, Wistar, Submaxillary gland, Membrane. Conditions: Not Active = under 50% inhibition at 10 µM.

Series [2] has as its target T2, Muscarinic acetylcholine receptor M2 (Homo sapiens, UniProt P08172). Note: in other assays of this panel Not Active means under 50% inhibition at 10 µM.
T2 sequence (P08172 whole entry): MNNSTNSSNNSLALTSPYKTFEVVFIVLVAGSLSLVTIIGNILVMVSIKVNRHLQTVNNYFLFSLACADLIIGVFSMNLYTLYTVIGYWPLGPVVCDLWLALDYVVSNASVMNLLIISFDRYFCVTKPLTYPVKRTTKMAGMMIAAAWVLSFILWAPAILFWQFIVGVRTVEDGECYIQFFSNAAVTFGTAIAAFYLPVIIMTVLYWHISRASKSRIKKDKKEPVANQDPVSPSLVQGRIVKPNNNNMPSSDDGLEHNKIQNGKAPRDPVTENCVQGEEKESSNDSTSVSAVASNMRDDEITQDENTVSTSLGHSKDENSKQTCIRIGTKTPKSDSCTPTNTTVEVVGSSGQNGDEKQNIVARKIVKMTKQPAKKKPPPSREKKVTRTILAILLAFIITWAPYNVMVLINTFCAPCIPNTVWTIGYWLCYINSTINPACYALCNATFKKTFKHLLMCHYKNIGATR
The series is classed as cell membranes, CHO-K1, Membrane.

In series [3] the target is T3, Muscarinic acetylcholine receptor M5 (Homo sapiens, UniProt P08912). Note: in other assays of this panel Not Active means under 50% inhibition at 10 µM.
T3 sequence (P08912 whole entry): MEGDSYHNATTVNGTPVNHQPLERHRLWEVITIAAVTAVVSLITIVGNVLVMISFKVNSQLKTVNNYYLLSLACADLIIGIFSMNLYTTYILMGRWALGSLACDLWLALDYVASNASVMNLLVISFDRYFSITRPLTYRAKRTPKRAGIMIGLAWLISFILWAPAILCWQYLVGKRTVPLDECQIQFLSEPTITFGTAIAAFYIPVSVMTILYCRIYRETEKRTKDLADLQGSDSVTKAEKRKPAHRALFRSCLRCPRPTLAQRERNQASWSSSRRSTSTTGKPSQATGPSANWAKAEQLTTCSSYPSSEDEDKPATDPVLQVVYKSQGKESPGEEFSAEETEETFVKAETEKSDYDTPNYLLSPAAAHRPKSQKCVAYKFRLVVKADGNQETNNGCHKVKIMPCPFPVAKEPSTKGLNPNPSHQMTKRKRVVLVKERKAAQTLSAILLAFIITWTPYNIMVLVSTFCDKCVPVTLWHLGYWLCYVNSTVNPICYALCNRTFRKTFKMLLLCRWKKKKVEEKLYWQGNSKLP
The format is cell membranes, CHO-K1, Membrane. Conditions: cho-k1.

Series [4] addresses Mitogen-activated protein kinase 1 (Homo sapiens, UniProt P28482). Nature of the series: DRUGMATRIX: Protein Serine/Threonine Kinase, ERK2 enzyme inhibition (substrate: Myelin Basic Protein). Further details: species or system Escherichia coli. Conditions: Not Active = under 50% inhibition at 10 µM.
A further series concerns the target T4, Cytochrome P450 1A2 (Homo sapiens, UniProt P05177). Note: in other assays of this panel Not Active means under 50% inhibition at 10 µM.
T4 sequence (P05177 whole entry): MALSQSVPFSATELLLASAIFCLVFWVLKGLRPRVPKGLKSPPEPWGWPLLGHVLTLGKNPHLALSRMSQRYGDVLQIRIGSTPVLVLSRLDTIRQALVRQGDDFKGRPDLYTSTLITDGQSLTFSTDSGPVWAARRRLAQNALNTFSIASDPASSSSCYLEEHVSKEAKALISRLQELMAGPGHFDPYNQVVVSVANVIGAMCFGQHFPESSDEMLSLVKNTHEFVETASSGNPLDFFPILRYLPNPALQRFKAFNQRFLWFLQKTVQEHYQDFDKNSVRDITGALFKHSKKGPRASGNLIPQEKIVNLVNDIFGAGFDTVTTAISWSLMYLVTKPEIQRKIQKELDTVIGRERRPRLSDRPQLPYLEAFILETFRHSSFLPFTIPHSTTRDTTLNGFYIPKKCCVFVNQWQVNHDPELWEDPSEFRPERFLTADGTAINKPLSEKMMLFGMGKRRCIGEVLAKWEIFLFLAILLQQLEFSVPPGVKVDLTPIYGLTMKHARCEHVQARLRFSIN
Conditions: bti-tn-5b1-4.

Consider ten molecules from ChEMBL document CHEMBL1909046, “DrugMatrix in vitro pharmacology data”.

Chain of Mitogen-activated protein kinase 1 (P28482 whole entry): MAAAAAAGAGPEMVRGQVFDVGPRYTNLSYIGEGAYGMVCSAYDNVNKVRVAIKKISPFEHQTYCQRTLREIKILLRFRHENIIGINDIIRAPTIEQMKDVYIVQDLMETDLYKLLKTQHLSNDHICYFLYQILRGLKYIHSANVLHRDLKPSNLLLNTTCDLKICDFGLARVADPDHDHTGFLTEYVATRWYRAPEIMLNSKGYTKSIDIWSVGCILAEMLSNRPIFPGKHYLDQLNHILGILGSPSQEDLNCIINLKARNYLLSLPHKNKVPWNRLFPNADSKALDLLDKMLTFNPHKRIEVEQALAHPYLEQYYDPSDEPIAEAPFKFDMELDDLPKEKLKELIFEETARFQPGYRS

With `COc1ccc([C@@H]2Sc3ccccc3N(CCN(C)C)C(=O)[C@@H]2OC(C)=O)cc1` [DILTIAZEM], the IC50 entry (in series [1]; in series [2] (cho-k1); in series [3]; in series [4]; on Cytochrome P450 1A2) was “Not Active” each time. Moreover, at Cytochrome P450 1A2, the Ki entry is on record as “Not Active”.
On to `CCc1ccc(C(=O)C(C)CN2CCCCC2)cc1` (stereo unspecified) [EPERISONE], for which the IC50 entry in series [1] was “Not Active”; in series [2] (read-out: IC50), 2340 nM; in series [3], “Not Active”; in series [4] it was “Not Active”; at Cytochrome P450 1A2, “Not Active”. In addition, the values for the Ki (in series [2] (read-out: Ki); at Cytochrome P450 1A2) were 831 nM and “Not Active”, respectively.
Take `C=C1CC[C@H](O)C/C1=C/C=C1\CCC[C@]2(C)[C@@H]([C@H](C)/C=C/[C@H](C)C(C)C)CC[C@@H]12` [ERGOCALCIFEROL]: the IC50 entry (in series [1]; in series [2] (cho-k1); in series [3]; in series [4]; on Cytochrome P450 1A2) was “Not Active” throughout. The Ki entry at Cytochrome P450 1A2 was “Not Active”.
For the molecule `CC(C)n1c(/C=C/C(O)CC(O)CC(=O)O)c(-c2ccc(F)cc2)c2ccccc21` (stereo unspecified) [FLUVASTATIN], the IC50 result (in series [1]; in series [2] (cho-k1); in series [3]; in series [4]; on Cytochrome P450 1A2) was “Not Active” in each case. Further, the Ki entry at Cytochrome P450 1A2 was “Not Active”.
In the case of `NCC1(CC(=O)O)CCCCC1` [GABAPENTIN], the IC50 entry (in series [1]; in series [2] (cho-k1); in series [3]; in series [4]; against Cytochrome P450 1A2) was “Not Active” in each case. Moreover, the Ki result on Cytochrome P450 1A2 is “Not Active”.
In the case of `COc1c(N2CCNC(C)C2)c(F)cc2c(=O)c(C(=O)O)cn(C3CC3)c12` (stereo unspecified) [GATIFLOXACIN], the concentration for half-maximal inhibition (IC50) result (in series [1]; in series [2] (cho-k1); in series [3]; in series [4]; at Cytochrome P450 1A2) was “Not Active” each time. The Ki entry on Cytochrome P450 1A2 was “Not Active”.
On to `CC1(C)[C@@H](O[C@H]2O[C@H](C(=O)O)[C@@H](O)[C@H](O)[C@H]2O[C@@H]2O[C@H](C(=O)O)[C@@H](O)[C@H](O)[C@H]2O)CC[C@]2(C)[C@H]3C(=O)C=C4[C@@H]5C[C@@](C)(C(=O)O)CC[C@]5(C)CC[C@@]4(C)[C@]3(C)CC[C@@H]12` [GLYCYRRHIZIN], for which the IC50 result (in series [1]; in series [2] (cho-k1); in series [3]; in series [4]; against Cytochrome P450 1A2) was “Not Active” in each case. In addition, on Cytochrome P450 1A2, the Ki result is reported as “Not Active”.
Consider `C/C=C1\[C@H]2C=C(C)C[C@]1(N)c1ccc(=O)[nH]c1C2` [HUPERZINE A], for which the IC50 entry (in series [1]; in series [2] (cho-k1); in series [3]; in series [4]; against Cytochrome P450 1A2) was “Not Active” each time. Further, at Cytochrome P450 1A2, the inhibitory constant (Ki) result is given as “Not Active”.
Regarding `CC1COc2c(N3CCN(C)CC3)c(F)cc3c(=O)c(C(=O)O)cn1c23` (stereo unspecified) [OFLOXACIN], the IC50 result (in series [1]; in series [2] (cho-k1); in series [3]; in series [4]; against Cytochrome P450 1A2) was “Not Active” in each case. Further, the Ki result at Cytochrome P450 1A2 was “Not Active”.
Turning to `Oc1cccc2cccnc12` [OXYQUINOLINE], the IC50 result (in series [1]; in series [2] (cho-k1); in series [3]; in series [4]; against Cytochrome P450 1A2) was “Not Active” in each case. In addition, the Ki entry on Cytochrome P450 1A2 is “Not Active”.
